From patent US20240300927A1, “AMIDES AS CBL-B INHIBITORS” (Genentech, Inc., priority 2021, published 2024) come the findings set out here.

For one assay, the target named is Cbl-b (Homo sapiens (Human), UniProt Q13191). As to the kind of experiment: Cbl-b LCK Ub TR-FRET assay (Cbl-b Lck HTRF). The assay is classed as biochemical. Particulars: for (fold-selectivity): Cbl-b and C-Cbl selectivity, Lck HTRF; for IC50: read-out: Cbl-b Lck HTRF IC50. In outline: (§1)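 Biotin-Cbl-b (16 nM) or biotin-c-Cbl (12 nM) at 2× preincubated with compound 60 min, then His-LCK (120 nM), 1 mM ATP and MgCl2 (2× mix) added for 90 min at RT. Buffer: HEPES pH 7.0, DTT. UBE2D2–HA-ubiquitin transfer read by TR-FRET (665/615 nm); IC50 versus no-LCK and DMSO controls, 10-point dilutions.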
Chain of Cbl-b (Q13191 40-426): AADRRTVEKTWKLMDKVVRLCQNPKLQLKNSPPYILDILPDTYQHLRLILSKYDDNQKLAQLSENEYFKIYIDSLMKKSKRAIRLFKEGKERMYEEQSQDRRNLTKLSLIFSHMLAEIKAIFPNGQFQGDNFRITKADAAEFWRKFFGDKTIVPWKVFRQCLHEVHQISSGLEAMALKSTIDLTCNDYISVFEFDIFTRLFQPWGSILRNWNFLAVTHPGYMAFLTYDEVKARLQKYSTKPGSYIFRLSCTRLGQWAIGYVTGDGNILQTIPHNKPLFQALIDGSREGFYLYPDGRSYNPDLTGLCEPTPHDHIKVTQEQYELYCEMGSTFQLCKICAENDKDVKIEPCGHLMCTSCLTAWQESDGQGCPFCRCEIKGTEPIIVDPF
Background: In TR-FRET formats the signal depends on donor and acceptor labels being close together.

The target of another assay is c-Cbl (Homo sapiens (Human), UniProt P22681). The assay is described as follows: C-cbl LCK Ub TR-FRET assay (C-cbl Lck HTRF). The assay is classed as biochemical. In outline:
as §1

Chain of c-Cbl (P22681 47-435): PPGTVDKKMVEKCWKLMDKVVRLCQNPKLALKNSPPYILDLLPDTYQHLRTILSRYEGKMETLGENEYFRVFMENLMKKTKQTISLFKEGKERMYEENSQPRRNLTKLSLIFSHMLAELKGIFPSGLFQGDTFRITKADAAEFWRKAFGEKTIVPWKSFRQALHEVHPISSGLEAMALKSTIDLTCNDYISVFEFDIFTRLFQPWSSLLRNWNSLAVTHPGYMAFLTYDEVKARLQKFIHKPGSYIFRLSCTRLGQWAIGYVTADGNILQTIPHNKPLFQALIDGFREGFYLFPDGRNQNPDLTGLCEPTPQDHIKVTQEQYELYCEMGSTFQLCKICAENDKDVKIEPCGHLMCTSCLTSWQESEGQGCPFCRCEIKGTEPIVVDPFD

With `Cn1cnnc1[C@@H](F)[C@@](C)(F)c1cccc(NC(=O)c2cc(CN3CCC4(CC4)C3)cc(C3CC3)n2)c1` [Compound 37, 4-(5-azaspiro[2.4]heptan-5-ylmethyl)-6-cyclopropyl-N-(3-((1R,2S)-1,2-difluoro-1-(4-methyl-4H-1,2,4-triazol-3-yl)propan-2-yl)phenyl)picolinamide], on Cbl-b, the “(fold-selectivity)” value was “(2.0x)”. Moreover, the values for the IC50 at Cbl-b and on c-Cbl were 0.78 µM and 1.5 µM, respectively.
In the same order, the values of `Cn1cnnc1[C@H](F)C1(c2cccc(NC(=O)c3cc(CN4CC(C)(CO)C4)cc(C4CC4)n3)c2)CC(F)(F)C1` [Compound 497, (R)-6-cyclopropyl-N-(3-(3,3-difluoro-1-(fluoro(4-methyl-4H-1,2,4-triazol-3-yl)methyl)cyclobutyl)phenyl)-4-((3-(hydroxymethyl)-3-methylazetidin-1-yl)methyl)picolinamide] are “(0.95x)”, 0.034 µM and 0.033 µM.
Take `C[C@@H](c1cc(C(=O)Nc2cccc(C3(Cc4nncn4C)COC3)c2)nc(C(F)(F)F)c1)N1CCC2(CC2)C1` [Compound 3, (S)-4-(1-(5-azaspiro[2.4]heptan-5-yl)ethyl)-N-(3-(3-((4-methyl-4H-1,2,4-triazol-3-yl)methyl)oxetan-3-yl)phenyl)-6-(trifluoromethyl)picolinamide]: the “(fold-selectivity)” value at Cbl-b is “(1.9x)”. Also, the IC50 at Cbl-b is 0.025 µM; on c-Cbl it was 0.047 µM.
On the same counts, the results for `Cn1cnnc1[C@H](F)[C@](C)(F)c1cccc(NC(=O)c2cc(CN3CCC4(CC4)C3)cc(C3CC3)n2)c1` [Compound 35, 4-(5-azaspiro[2.4]heptan-5-ylmethyl)-6-cyclopropyl-N-(3-((1S,2R)-1,2-difluoro-1-(4-methyl-4H-1,2,4-triazol-3-yl)propan-2-yl)phenyl)picolinamide] are “(1.8x)”, 0.023 µM and 0.4 µM.
Take `C[C@H](Cc1nncn1C)c1cccc(NC(=O)c2nc(C3CC3)c[nH]2)c1` [Compound 122, (R)-4-cyclopropyl-N-(3-(1-(4-methyl-4H-1,2,4-triazol-3-yl)propan-2-yl)phenyl)-1H-imidazole-2-carboxamide]: on Cbl-b, the “(fold-selectivity)” value is listed as “(0.79x)” and the IC50 stood at 2.8 µM. For the same molecule, the IC50 against c-Cbl worked out at 2.2 µM.
Turning to `CC(C)[C@H]1CN(C)CCN1Cc1cc(C(=O)Nc2cccc(C3(Cc4nncn4C)COC3)c2)nc(C2CC2)c1` [Compound 498, (S)-6-cyclopropyl-4-((2-isopropyl-4-methylpiperazin-1-yl)methyl)-N-(3-(3-((4-methyl-4H-1,2,4-triazol-3-yl)methyl)oxetan-3-yl)phenyl)picolinamide], at Cbl-b, the “(fold-selectivity)” value is “(0.62x)” and the IC50 was 0.01 µM. Further, at c-Cbl, the IC50 turned out to be 0.0062 µM.
In the same order, the values of `CC(C)[C@H]1CN(C)CCN1Cc1cc(C(=O)Nc2cccc(C3([C@H](F)c4nncn4C)COC3)c2)nc(C2CC2)c1` [Compound 500, 6-cyclopropyl-N-(3-(3-((S)-fluoro(4-methyl-4H-1,2,4-triazol-3-yl)methyl)oxetan-3-yl)phenyl)-4-(((S)-2-isopropyl-4-methylpiperazin-1-yl)methyl)picolinamide] are “(0.82x)”, 0.0099 µM and 0.008 µM.
Turning to `Cn1cnnc1[C@@H](F)C1(c2cccc(NC(=O)c3cc(CN4CC(C)(F)C4)cc(C(F)(F)F)n3)c2)COC1` [Compound 61, (S)-N-(3-(3-(fluoro(4-methyl-4H-1,2,4-triazol-3-yl)methyl)oxetan-3-yl)phenyl)-4-((3-fluoro-3-methylazetidin-1-yl)methyl)-6-(trifluoromethyl)picolinamide], on Cbl-b, the “(fold-selectivity)” value is on record as “(2.3x)”. In addition, the figures for the IC50 at Cbl-b and at c-Cbl were 0.18 µM and 0.42 µM, respectively.
For `C[C@H](c1cc(C(=O)Nc2cccc(C3([C@H](F)c4nncn4C)COC3)c2)nc(C2CC2)c1)N1CCC2(CC2)C1` [Compound 25, 4-((R)-1-(5-azaspiro[2.4]heptan-5-yl)ethyl)-6-cyclopropyl-N-(3-(3-((S)-fluoro(4-methyl-4H-1,2,4-triazol-3-yl)methyl)oxetan-3-yl)phenyl)picolinamide], on Cbl-b, the “(fold-selectivity)” value is “(1.0x)” and the IC50 is 0.02 µM. The midpoint of inhibition on c-Cbl, the IC50, lay at 0.02 µM.
Turning to `CC(C)[C@H]1CN(C)CCN1Cc1cc(C(=O)Nc2cccc(C3([C@@H](F)c4nncn4C)CC(F)(F)C3)c2)nc(C2CC2)c1` [Compound 225, 6-cyclopropyl-N-(3-(3,3-difluoro-1-((R)-fluoro(4-methyl-4H-1,2,4-triazol-3-yl)methyl)cyclobutyl)phenyl)-4-(((S)-2-isopropyl-4-methylpiperazin-1-yl)methyl)picolinamide], on Cbl-b, the “(fold-selectivity)” value is recorded as “(1.2x)” and the IC50 was 0.0071 µM. At c-Cbl, this molecule registered an IC50 of 0.0084 µM.
For `C[C@@H](c1cc(C(=O)Nc2cccc(C3([C@H](F)c4nncn4C)COC3)c2)nc(C2CC2)c1)N1CCC2(CC2)C1` [Compound 24, 4-((S)-1-(5-azaspiro[2.4]heptan-5-yl)ethyl)-6-cyclopropyl-N-(3-(3-((S)-fluoro(4-methyl-4H-1,2,4-triazol-3-yl)methyl)oxetan-3-yl)phenyl)picolinamide], on Cbl-b, the “(fold-selectivity)” value was “(0.92x)” and the half-inhibitory concentration (IC50) amounted to 0.063 µM. For the same molecule, the IC50 on c-Cbl was 0.058 µM.
Turning to `Cn1cnnc1[C@@H](F)[C@](C)(F)c1cccc(NC(=O)c2cc(CN3CCC4(CC4)C3)nc(C3CC3)n2)c1` [Compound 42, 6-(5-azaspiro[2.4]heptan-5-ylmethyl)-2-cyclopropyl-N-(3-((1R,2R)-1,2-difluoro-1-(4-methyl-4H-1,2,4-triazol-3-yl)propan-2-yl)phenyl)pyrimidine-4-carboxamide], on Cbl-b, the “(fold-selectivity)” value is recorded as “(1.4x)” and the IC50 came to 0.19 µM. The IC50 against c-Cbl came to 0.27 µM.
On the same counts, the results for `Cn1cnnc1[C@H](F)C1(c2cccc(NC(=O)c3cc(CN)cc(C(F)(F)F)n3)c2)COC1.O=CO` [Compound 64, (R)-4-(aminomethyl)-N-(3-(3-(fluoro(4-methyl-4H-1,2,4-triazol-3-yl)methyl)oxetan-3-yl)phenyl)-6-(trifluoromethyl)picolinamide formate] are “(1.2x)”, 0.2 µM and 0.23 µM.
On to `Cn1cnnc1[C@H](F)[C@](C)(F)c1cccc(NC(=O)c2cc(CN3CCC4(CC4)C3)nc(C3CC3)n2)c1` [Compound 39, 6-(5-azaspiro[2.4]heptan-5-ylmethyl)-2-cyclopropyl-N-(3-((1S,2R)-1,2-difluoro-1-(4-methyl-4H-1,2,4-triazol-3-yl)propan-2-yl)phenyl)pyrimidine-4-carboxamide], for which, at Cbl-b, the “(fold-selectivity)” value was “(1.9x)” and the IC50 stood at 0.18 µM. Also, the IC50 against c-Cbl came out at 0.34 µM.
As to `Cn1cnnc1[C@@H](F)C1(c2cccc(NC(=O)c3cc(CN4CC(C)(F)C4)nc(C4CC4)n3)c2)COC1` [Compound 21, 2-cyclopropyl-6-[(3-fluoro-3-methyl-azetidin-1-yl)methyl]-N-[3-[3-[(S)-fluoro-(4-methyl-1,2,4-triazol-3-yl)methyl]oxetan-3-yl]phenyl]pyrimidine-4-carboxamide], on Cbl-b, the “(fold-selectivity)” value was “(1.3x)” and the 50% inhibitory concentration (IC50) worked out at 0.51 µM. Moreover, half-maximal inhibition on c-Cbl (IC50) required 0.67 µM.
As for `Cn1cnnc1[C@@H](F)C1(c2cccc(NC(=O)c3cc(CN4CCC5(CC5)C4)nc(C4CC4)n3)c2)COC1` [Compound 63, (S)-6-((5-azaspiro[2.4]heptan-5-yl)methyl)-2-cyclopropyl-N-(3-(3-(fluoro(4-methyl-4H-1,2,4-triazol-3-yl)methyl)oxetan-3-yl)phenyl)pyrimidine-4-carboxamide], at Cbl-b, the “(fold-selectivity)” value is reported as “(1.1x)” and the IC50 was found to be 0.17 µM. This molecule also displayed an IC50 against c-Cbl of 0.18 µM.

The IC50 is the concentration needed to halve the response being measured.
